Where “and” joins values, the source holds several entries; their conditions need not be identical. Identical values can stand only once. Like-named read-outs stand apart in the source and are kept apart here.
Tests used:
[1] = tested on: non-expressing oocytes; experiment: cells; type: cell-based, Xenopus laevis; details: for Uptake of [3H]CQ (% PfCRTDd2 control), cis-inhibition, non-expressing oocytes: SEM
Outline: (§1)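 Washed oocytes (ten per treatment) were exposed to label in pH 5.5 ND96 for 1.5 h at 27.5 °C. Buffer was then removed, cells rinsed in ice-cold ND96, lysed in SDS and counted.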

[2] = target: PfCRT^3D7 (Plasmodium falciparum, UniProt Q8IBZ9); experiment: cell-based; type: cell-based; details: for Uptake of [3H]CQ (% PfCRTDd2 control), cis-inhibition, PfCRT3D7: SEM
PfCRT^3D7, sequence (Q8IBZ9 59-398): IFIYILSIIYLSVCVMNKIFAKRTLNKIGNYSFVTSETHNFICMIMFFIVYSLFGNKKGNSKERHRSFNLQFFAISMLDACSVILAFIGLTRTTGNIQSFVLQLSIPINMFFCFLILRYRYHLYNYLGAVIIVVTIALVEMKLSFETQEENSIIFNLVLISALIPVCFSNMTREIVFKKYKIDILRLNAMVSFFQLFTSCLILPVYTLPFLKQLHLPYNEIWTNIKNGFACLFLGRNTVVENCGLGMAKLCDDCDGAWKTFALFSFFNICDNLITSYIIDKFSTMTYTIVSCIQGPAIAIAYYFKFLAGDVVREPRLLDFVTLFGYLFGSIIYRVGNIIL
Source text: The orientation of PfCRT in the parasite’s DV membrane, and also in the oocyte plasma membrane, is such that its N- and C-termini extend into the cytosol. The oocytes were suspended in a reaction buffer adjusted to pH 5.5 to mimic the pH of the DV lumen[1],[2]. In this scenario, the transport of a substrate via PfCRT from the acidic extracellular solution into the oocyte cytosol[15] is analogous to the parasite’s PfCRT-mediated efflux of a substrate from the acidic DV and into the cytosol. Unless specified otherwise, this is the direction in which substrate transport was measured in the oocyte assays.
Unless specified otherwise, the transport assays were conducted over 1.5 h at 27.5 °C and the reaction buffer was ND96 (96 mM NaCl, 2 mM KCl, 1 mM MgCl2, 1.8 mM CaCl2, 10 mM MES and 10 mM Tris-base) at pH 5.5.
Ten oocytes were washed twice with the relevant ND96 buffer. […] The assay was terminated by removing the reaction buffer and washing the oocytes with ice-cold ND96 buffer. The oocytes were lysed in 10% (w/v) sodium dodecyl sulfate (SDS) and the radioactivity accumulated within each oocyte was measured with a MicroBeta^2 microplate liquid scintillation analyser (PerkinElmer).
At least four independent experiments were performed (on different days and using oocytes from different frogs), and within each experiment measurements were made from ten oocytes per treatment.

[3] = target: PfCRT^Dd2 (Plasmodium falciparum, UniProt Q9N623, A220S/I356T/K76T/M74I/N326S/N75E/Q271E/R371I); experiment: [3H]CQ uptake into Xenopus oocytes, cis-inhibition by unlabelled solute; type: cell-based; details: for PfCRT-mediated [3H]CQ transport, cis-inhibition (% PfCRTDd2 control): PfCRTDd2 oocytes, background [3H]CQ accumulation subtracted, normalised to oocyte type control; for Uptake of [3H]CQ (% PfCRTDd2 control), cis-inhibition, PfCRTDd2: total [3H]CQ transport, mean ± SEM, SEM
PfCRT^Dd2, sequence (Q9N623 whole entry A220S/I356T/K76T/M74I/N326S/N75E/Q271E/R371I): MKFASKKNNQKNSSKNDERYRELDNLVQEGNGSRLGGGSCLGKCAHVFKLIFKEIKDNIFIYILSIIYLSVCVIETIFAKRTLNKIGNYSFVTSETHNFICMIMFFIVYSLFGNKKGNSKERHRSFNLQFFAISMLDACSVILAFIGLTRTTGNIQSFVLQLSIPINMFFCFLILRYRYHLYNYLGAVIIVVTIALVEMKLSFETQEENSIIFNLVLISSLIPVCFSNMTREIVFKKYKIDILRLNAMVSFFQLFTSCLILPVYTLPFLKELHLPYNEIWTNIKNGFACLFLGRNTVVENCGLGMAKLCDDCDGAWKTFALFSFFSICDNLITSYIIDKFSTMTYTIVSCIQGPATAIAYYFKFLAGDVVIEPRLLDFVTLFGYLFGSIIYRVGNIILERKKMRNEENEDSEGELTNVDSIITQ
Outline: as §1

[4] = target: PfCRT^Ecu1110 (Plasmodium falciparum, UniProt Q9N623, A220S/I356L/K76T/N326D); experiment: as above; type: cell-based; details: for Uptake of [3H]CQ (% PfCRTEcu1110 control), cis-inhibition / PfCRT-mediated [3H]CQ transport, cis-inhibition (% PfCRTEcu1110 control): PfCRTEcu1110 oocytes; for Uptake of [3H]CQ (% PfCRTEcu1110 control), cis-inhibition / Uptake of [3H]CQ (% PfCRTDd2 control), cis-inhibition, PfCRTEcu1110: total [3H]CQ transport; for Uptake of [3H]CQ (% PfCRTEcu1110 control), cis-inhibition: normalised to the oocyte type control; for PfCRT-mediated [3H]CQ transport, cis-inhibition (% PfCRTEcu1110 control): background [3H]CQ accumulation subtracted, normalised to oocyte type control; for [3H]CQ transport (% PfCRTEcu1110 control), cis-inhibition, PfCRTEcu1110: PfCRT-mediated component (background subtracted), sheet title says normalised to PfCRTDd2 control; for [3H]CQ transport (% PfCRTEcu1110 control), cis-inhibition, PfCRTEcu1110 / Uptake of [3H]CQ (% PfCRTDd2 control), cis-inhibition, PfCRTEcu1110: mean ± SEM, SEM
PfCRT^Ecu1110, sequence (Q9N623 whole entry A220S/I356L/K76T/N326D): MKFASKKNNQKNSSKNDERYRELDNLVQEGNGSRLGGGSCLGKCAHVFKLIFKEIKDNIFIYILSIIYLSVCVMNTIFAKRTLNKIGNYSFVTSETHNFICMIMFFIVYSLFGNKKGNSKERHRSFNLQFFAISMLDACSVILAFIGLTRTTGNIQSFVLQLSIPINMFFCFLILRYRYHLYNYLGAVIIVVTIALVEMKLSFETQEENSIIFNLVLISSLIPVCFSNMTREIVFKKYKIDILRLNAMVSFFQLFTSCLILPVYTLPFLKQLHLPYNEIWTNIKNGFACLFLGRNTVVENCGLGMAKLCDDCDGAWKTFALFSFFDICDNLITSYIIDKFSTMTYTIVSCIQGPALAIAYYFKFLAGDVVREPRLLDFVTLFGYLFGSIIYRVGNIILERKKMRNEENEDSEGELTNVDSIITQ
Outline: as §1

[5] = target: T1, PfNT1 (Plasmodium falciparum, UniProt Q8IDM6); experiment: cell-based; type: cell-based; details: SEM
T1 construct: expressed in transfected cells; host or cells: Xenopus laevis oocytes (stage V-VI), cRNA-injected
T1 sequence (Q8IDM6 whole entry): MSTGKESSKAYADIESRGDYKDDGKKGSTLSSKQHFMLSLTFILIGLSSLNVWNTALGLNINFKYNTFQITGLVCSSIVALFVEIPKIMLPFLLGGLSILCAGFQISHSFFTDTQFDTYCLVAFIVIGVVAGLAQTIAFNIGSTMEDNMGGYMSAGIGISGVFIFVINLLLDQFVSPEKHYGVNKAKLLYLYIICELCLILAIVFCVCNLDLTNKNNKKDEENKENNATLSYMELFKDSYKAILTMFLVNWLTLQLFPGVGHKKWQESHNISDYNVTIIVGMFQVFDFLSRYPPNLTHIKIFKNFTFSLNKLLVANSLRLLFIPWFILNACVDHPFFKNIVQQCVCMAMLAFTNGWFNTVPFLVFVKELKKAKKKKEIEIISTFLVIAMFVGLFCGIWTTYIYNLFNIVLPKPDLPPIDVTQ
Outline: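 Transport measured in Xenopus oocytes expressing the transporters, 1.5 h at 27.5 °C in ND96 pH 5.5 unless noted. For trans-stimulation, VF-6 injected in 25 nL ND96 at pH 5.0–7.0 or Na^+-free (choline) buffer; intracellular levels based on ~400 nL oocyte volume. Ten oocytes per treatment, ≥4 experiments.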

[6] = tested on: PfCRT; experiment: Influx of VF-6 via PfCRT into the oocyte, solutes tested as potential co-substrates; type: cell-based, Plasmodium falciparum; parameters: key: X: Compounds that have been tested as potential co-substrates but are not required for influx of VF-6 via PfCRT into the oocyte; details: X marks the solute
[7] = tested on: PfCRT; experiment: Test of solutes as potential co-substrates for influx of VF-6 via PfCRT into the oocyte; type: cell-based, Plasmodium falciparum; parameters: key: X: Compounds that have been tested as potential co-substrates but are not required for influx of VF-6 via PfCRT into the oocyte; details: X = tested
[8] = tested on: PfCRT; experiment: Potential co-substrates tested for influx of VF-6 via PfCRT into the oocyte; type: cell-based, Plasmodium falciparum; parameters: key: X: Compounds that have been tested as potential co-substrates but are not required for influx of VF-6 via PfCRT into the oocyte
[9] = tested on: non-expressing oocytes; type: cell-based, Xenopus laevis; details: SEM
Outline: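 Oocytes (ten per treatment, ≥4 independent frogs/days) were preloaded by injecting VF-6 in 25 nL ND96 at pH 5.0, 5.5, 6.0 or 7.0, or Na^+-free choline buffer, then uptake run 1.5 h, 27.5 °C, ND96 pH 5.5 by default. Internal concentrations assumed ~400 nL oocyte volume.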

[10] = total [3H]CQ transport, [test solute] = 0.5 mM, mean ± SEM
[11] = total [3H]CQ transport, [test solute] = 1 mM, mean ± SEM
[12] = total [3H]CQ transport, [test solute] = 2 mM, mean ± SEM

Row | Structure (SMILES) | PfCRT-mediated [3H]CQ transport, cis-inhibition (% PfCRTDd2 control) ([3]; [test solute] = 1 mM) | PfCRT-mediated [3H]CQ transport, cis-inhibition (% PfCRTDd2 control) ([3]; [test solute] = 2 mM) | Uptake of [3H]CQ (% PfCRTDd2 control), cis-inhibition, PfCRTDd2 ([3]; [test solute] = 0.5 mM) | Uptake of [3H]CQ (% PfCRTDd2 control), cis-inhibition, PfCRTDd2 ([3]; [test solute] = 2 mM) | Uptake of [3H]CQ (% PfCRTEcu1110 control), cis-inhibition ([4]; [test solute] = 0.5 mM) | Uptake of [3H]CQ (% PfCRTEcu1110 control), cis-inhibition ([4]; [test solute] = 1 mM) | PfCRT-mediated [3H]CQ transport, cis-inhibition (% PfCRTEcu1110 control) ([4]; [test solute] = 0.5 mM) | [3H]CQ transport (% PfCRTEcu1110 control), cis-inhibition, PfCRTEcu1110 ([4]; [test solute] = 0.5 mM) | [3H]CQ transport (% PfCRTEcu1110 control), cis-inhibition, PfCRTEcu1110 ([4]; [test solute] = 2 mM) | Uptake of [3H]CQ (% PfCRTDd2 control), cis-inhibition, PfCRTEcu1110 ([4]; [test solute] = 0.5 mM) | Uptake of [3H]CQ (% PfCRTDd2 control), cis-inhibition, PfCRTEcu1110 ([4]; [test solute] = 1 mM) | Uptake of [3H]CQ (% PfCRTDd2 control), trans-stimulation, PfNT1 [5] | Compounds that have been tested as potential co-substrates but are not required for influx of VF-6 via PfCRT into the oocyte [6] | Tested as potential co-substrate but not required for influx of VF-6 via PfCRT into the oocyte [7] | Tested as potential co-substrate but not required for influx of VF-6 via PfCRT into the oocyte [8] | further results
1 | N[C@@H](CC(=O)O)C(=O)O [L-aspartatic acid] | 87 ± 6.1 % PfCRTDd2 control | 73 ± 3.7 % PfCRTDd2 control | 93 ± 3.6 % PfCRTDd2 control | 75 ± 4.6 % PfCRTDd2 control | 94 ± 4.5 % PfCRTEcu1110 control | 90 ± 3.6 % PfCRTEcu1110 control | 92 ± 1.4 % PfCRTEcu1110 control | 28 ± 0.7 % PfCRTEcu1110 control | 24 ± 0.1 % PfCRTEcu1110 control | 31 ± 1.5 % PfCRTDd2 control | 30 ± 1.4 % PfCRTDd2 control | 2.4 ± 0.08 % PfCRTDd2 control | X | X | X | Uptake of [3H]CQ (% non-expressing oocyte control), cis-inhibition ([1]; non-expressing oocytes, [test solute] = 0.5 mM, total [3H]CQ transport, normalised to the oocyte type control): 101 ± 4.8 % non-expressing oocyte control; Uptake of [3H]CQ (% non-expressing oocyte control), cis-inhibition ([1]; non-expressing oocytes, [test solute] = 1 mM, total [3H]CQ transport, normalised to the oocyte type control): 97 ± 6.3 % non-expressing oocyte control; Uptake of [3H]CQ (% non-expressing oocyte control), cis-inhibition ([1]; non-expressing oocytes, [test solute] = 2 mM, total [3H]CQ transport, normalised to the oocyte type control): 100 ± 4.6 % non-expressing oocyte control; Uptake of [3H]CQ (% PfCRTDd2 control), cis-inhibition, non-expressing oocytes [1, 10]: 3.9 ± 0.03 % PfCRTDd2 control; Uptake of [3H]CQ (% PfCRTDd2 control), cis-inhibition, non-expressing oocytes [1, 11]: 3.2 ± 0.08 % PfCRTDd2 control; Uptake of [3H]CQ (% PfCRTDd2 control), cis-inhibition, non-expressing oocytes [1, 12]: 3.4 ± 0.1 % PfCRTDd2 control; Uptake of [3H]CQ (% PfCRT3D7 control), cis-inhibition ([2]; PfCRT3D7 oocytes, [test solute] = 2 mM, total [3H]CQ transport, normalised to the oocyte type control): 100 ± 3.5 % PfCRT3D7 control; Uptake of [3H]CQ (% PfCRTDd2 control), cis-inhibition, PfCRT3D7 [2, 10]: 3.1 ± 0.07 % PfCRTDd2 control; Uptake of [3H]CQ (% PfCRTDd2 control), cis-inhibition, PfCRT3D7 [2, 11]: 2.6 ± 0.08 % PfCRTDd2 control; Uptake of [3H]CQ (% PfCRTDd2 control), cis-inhibition, PfCRT3D7 [2, 12]: 2.2 ± 0.06 % PfCRTDd2 control; PfCRT-mediated [3H]CQ transport, cis-inhibition (% PfCRTDd2 control) ([3]; [test solute] = 0.5 mM): 90 ± 5.7 % PfCRTDd2 control; Uptake of [3H]CQ (% PfCRTDd2 control), cis-inhibition, PfCRTDd2 ([3]; [test solute] = 1 mM): 89 ± 5.2 % PfCRTDd2 control; Uptake of [3H]CQ (% PfCRTEcu1110 control), cis-inhibition ([4]; [test solute] = 2 mM): 83 ± 4.3 % PfCRTEcu1110 control; PfCRT-mediated [3H]CQ transport, cis-inhibition (% PfCRTEcu1110 control) ([4]; [test solute] = 1 mM): 88 ± 2.7 % PfCRTEcu1110 control; PfCRT-mediated [3H]CQ transport, cis-inhibition (% PfCRTEcu1110 control) ([4]; [test solute] = 2 mM): 80 ± 1.3 % PfCRTEcu1110 control; Uptake of [3H]CQ (% PfCRTDd2 control), cis-inhibition, PfCRTEcu1110 ([4]; [test solute] = 2 mM): 27 ± 1.0 % PfCRTDd2 control
2 | NCC(=O)O [L-glycine] | 94 ± 3.7 % PfCRTDd2 control | 93 ± 3.1 % PfCRTDd2 control | 97 ± 3.3 % PfCRTDd2 control | 95 ± 3.6 % PfCRTDd2 control | 95 ± 4.2 % PfCRTEcu1110 control | 100 ± 3.2 % PfCRTEcu1110 control | 94 ± 5.1 % PfCRTEcu1110 control | 28 ± 0.5 % PfCRTEcu1110 control | 29 ± 0.4 % PfCRTEcu1110 control | 31 ± 1.5 % PfCRTDd2 control | 33 ± 1.0 % PfCRTDd2 control | 2.9 ± 0.03 % PfCRTDd2 control | X | X | X | Uptake of [3H]CQ (% non-expressing oocyte control), cis-inhibition [1]: 100 ± 4.6 % non-expressing oocyte control and 98 ± 7.4 % non-expressing oocyte control and 100 ± 3.5 % non-expressing oocyte control; Uptake of [3H]CQ (% PfCRTDd2 control), cis-inhibition, non-expressing oocytes [1]: 3.1 ± 0.09 % PfCRTDd2 control and 2.2 ± 0.03 % PfCRTDd2 control and 2.7 ± 0.03 % PfCRTDd2 control; Uptake of [3H]CQ (% PfCRT3D7 control), cis-inhibition [2]: 100 ± 3.6 % PfCRT3D7 control and 100 ± 4.8 % PfCRT3D7 control; Uptake of [3H]CQ (% PfCRTDd2 control), cis-inhibition, PfCRT3D7 [2]: 3.6 ± 0.07 % PfCRTDd2 control and 2.1 ± 0.01 % PfCRTDd2 control and 2.9 ± 0.04 % PfCRTDd2 control; [3H]CQ transport (% PfCRTEcu1110 control), cis-inhibition, PfCRTEcu1110 ([4]; [test solute] = 1 mM): 30 ± 0.5 % PfCRTEcu1110 control; Uptake of [3H]CQ (% PfCRTDd2 control), trans-stimulation, non-expressing oocytes [9]: 2.8 ± 0.05 % PfCRTDd2 control
